Measurements reported in patent US20220226337A1 (Gilead Sciences, Inc., priority 2018, published 2022).

What follows are compounds tested against T1, α4β7 integrin interaction with MadCAM-1 (RPMI8866 cells) (Homo sapiens, UniProt P13612+P26010) (assay: α4β7 Integrin Cell Capture Assay). Settings: capture of α4β7 integrin expressing RPMI8866 cells on recombinant MadCAM-1 extracellular domain-coated plate; 0.5 mM MnCl2.
T1 construct: α4β7 integrin expressing cells; endogenous in cells; host or cells: RPMI8866 cells
T1 sequence (P13612 34-1032): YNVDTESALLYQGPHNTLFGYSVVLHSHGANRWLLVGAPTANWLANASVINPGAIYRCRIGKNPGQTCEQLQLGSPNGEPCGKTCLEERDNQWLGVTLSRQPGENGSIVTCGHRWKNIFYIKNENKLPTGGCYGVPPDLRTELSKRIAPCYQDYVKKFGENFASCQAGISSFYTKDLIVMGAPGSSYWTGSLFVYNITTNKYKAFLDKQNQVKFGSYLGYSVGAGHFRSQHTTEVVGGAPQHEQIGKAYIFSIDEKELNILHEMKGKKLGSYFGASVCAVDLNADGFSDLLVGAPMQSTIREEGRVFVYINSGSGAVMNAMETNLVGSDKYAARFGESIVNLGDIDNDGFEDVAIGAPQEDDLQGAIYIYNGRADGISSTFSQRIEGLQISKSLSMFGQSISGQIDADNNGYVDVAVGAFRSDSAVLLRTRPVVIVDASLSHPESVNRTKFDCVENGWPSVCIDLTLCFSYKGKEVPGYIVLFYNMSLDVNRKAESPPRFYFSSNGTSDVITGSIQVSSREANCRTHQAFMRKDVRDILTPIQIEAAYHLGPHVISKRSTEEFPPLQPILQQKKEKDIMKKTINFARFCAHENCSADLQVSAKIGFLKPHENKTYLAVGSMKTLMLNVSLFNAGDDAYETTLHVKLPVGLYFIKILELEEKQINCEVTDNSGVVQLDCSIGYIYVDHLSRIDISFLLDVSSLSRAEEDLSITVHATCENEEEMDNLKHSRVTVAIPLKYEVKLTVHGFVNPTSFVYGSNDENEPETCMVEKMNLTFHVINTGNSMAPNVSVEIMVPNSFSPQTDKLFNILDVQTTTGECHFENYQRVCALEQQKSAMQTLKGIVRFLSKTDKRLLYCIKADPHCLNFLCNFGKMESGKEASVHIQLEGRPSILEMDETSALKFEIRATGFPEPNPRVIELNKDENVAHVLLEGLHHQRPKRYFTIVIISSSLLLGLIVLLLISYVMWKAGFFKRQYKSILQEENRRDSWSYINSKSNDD
T1 sequence (P26010 20-798): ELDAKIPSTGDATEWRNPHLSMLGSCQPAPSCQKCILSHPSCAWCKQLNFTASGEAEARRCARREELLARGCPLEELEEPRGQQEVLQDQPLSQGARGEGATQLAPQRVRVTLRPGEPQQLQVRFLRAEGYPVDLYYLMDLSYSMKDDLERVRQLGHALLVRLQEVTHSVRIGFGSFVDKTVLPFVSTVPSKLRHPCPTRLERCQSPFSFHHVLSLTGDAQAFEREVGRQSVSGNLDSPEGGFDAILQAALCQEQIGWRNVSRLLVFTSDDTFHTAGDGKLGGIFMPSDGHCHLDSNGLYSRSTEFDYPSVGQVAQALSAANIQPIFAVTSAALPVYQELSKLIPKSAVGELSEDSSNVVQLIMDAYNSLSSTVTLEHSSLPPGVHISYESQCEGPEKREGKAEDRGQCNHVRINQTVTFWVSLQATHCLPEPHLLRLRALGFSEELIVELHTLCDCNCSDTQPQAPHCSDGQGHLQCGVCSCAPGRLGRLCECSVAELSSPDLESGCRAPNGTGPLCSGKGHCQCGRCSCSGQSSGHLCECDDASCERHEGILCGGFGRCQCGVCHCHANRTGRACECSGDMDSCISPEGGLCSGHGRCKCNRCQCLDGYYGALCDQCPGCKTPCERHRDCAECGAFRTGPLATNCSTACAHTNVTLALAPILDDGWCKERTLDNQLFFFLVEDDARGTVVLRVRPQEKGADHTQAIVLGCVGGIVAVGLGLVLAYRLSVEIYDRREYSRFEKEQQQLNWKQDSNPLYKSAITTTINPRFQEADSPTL
Assay type: cell-based
Description: The potency of inhibitors in preventing α4β7 integrin interaction with MadCAM-1 was measured by monitoring the capture of α4β7 integrin expressing cells on a recombinant MadCAM-1 extracellular domain-coated plate. 384-well plates (Corning 3702) were coated with MadCAM-1 extracellular domain by dispensing 20 μL of MAdCAM-1 at 1.0 μg/mL per well and incubating overnight at 4° C. The plates were then washed with PBS and blocked with 3% BSA for 2 hours before being washed again. RPMI8866 cells were spun down and re-suspended in assay medium (DMEM+0.5% FBS+0.5 mM MnCl2) at a density of 0.5×10^6 cells/mL. The cells were then dispensed (60 μL/well) to a 384-well plate (Greiner 781280) that was previously spotted with 60 nL of test compound per well. The plates were incubated at 37° C. for 1 hour. 50 μL of cells were transferred to the blocked, MadCAM-1-coated plates and incubated for 30 minutes at 37° C. 10 μL of 12% glutaraldehyde containing Hoechst 33342 (0.06 mg/mL) was added to the cells (2% glutaraldehyde and 0.01 mg/mL final concentrations). The plates were incubated for 90 minutes at room temperature. The plates were then washed 3 times with 70 μL of PBS per well and imaged on a Cellomics ArrayScan instrument. The cells that were bound to the plate were counted and plotted against the compound concentration to determine the EC50 of the test compounds.

| Structure (SMILES) | EC50 |
| --- | --- |
| Cc1c(-c2ccc(C[C@H](NC(=O)c3c(F)cccc3F)C(=O)O)c3c2CCC3)c(=O)n(C)c2ccc(F)cc12 [Example 105, (S)-2-(2,6-difluorobenzamido)-3-(7-(6-fluoro-1,4-dimethyl-2-oxo-1,2-dihydroquinolin-3-yl)-2,3-dihydro-1H-inden-4-yl)propanoic acid] | 2.44 nM |
| Cc1c(-c2ccc(C[C@H](NC(=O)c3c(F)cccc3F)C(=O)O)c3c2CCOC3)c(=O)n(C)c2ccc(F)cc12 [Example 35, (S)-2-(2,6-difluorobenzamido)-3-(5-(6-fluoro-1,4-dimethyl-2-oxo-1,2-dihydroquinolin-3-yl)isochroman-8-yl)propanoic acid] | 1.96 nM |
| CS(=O)(=O)Nc1cc(F)c(C(=O)N[C@@H](Cc2ccc(-c3c(Cl)cc(F)cc3Cl)c3c2CCCO3)C(=O)O)c(F)c1 [Example 92, (S)-3-(8-(2,6-dichloro-4-fluorophenyl)chroman-5-yl)-2-(2,6-difluoro-4-(methylsulfonamido)benzamido)propanoic acid] | 9.19 nM |
| CCOCc1cc(OC)c(-c2ccc(C[C@H](NC(=O)c3c(F)cccc3F)C(=O)O)c3c2OCCC3)c(OC)c1 [Example 71, (S)-2-(2,6-difluorobenzamido)-3-(8-(4-(ethoxymethyl)-2,6-dimethoxyphenyl)chroman-5-yl)propanoic acid] | 9.18 nM |
| O=C(N[C@@H](Cc1ccc(-c2c(Cl)cc(F)cc2Cl)c2c1C1CC1CO2)C(=O)O)c1c(F)cccc1F (stereo partly drawn) [Example 77, (2S)-3-(4-(2,6-dichloro-4-fluorophenyl)-1,1a,2,7b-tetrahydrocyclopropa [c]chromen-7-yl)-2-(2,6-difluorobenzamido)propanoic acid] | 70.3 nM |
| O=C(N[C@@H](Cc1ccc(-c2c(Cl)cc(F)cc2Cl)c2c1[C@@H]1C[C@@H]1CO2)C(=O)O)c1c(Cl)cccc1Cl (single isomer, unassigned) [Example 82] | 42 nM |
| CC[C@@H](Nc1cc(F)c(C(=O)N[C@@H](Cc2ccc(-c3cc4ccccc4n(C)c3=O)c3c2CCCO3)C(=O)O)c(F)c1)C(F)(F)F [Example 31, (S)-2-(2,6-difluoro-4-(((R)-1,1,1-trifluorobutan-2-yl)amino)benzamido)-3-(8-(1-methyl-2-oxo-1,2-dihydroquinolin-3-yl)chroman-5-yl)propanoic acid] | 8.81 nM |
| CC[C@@H](Nc1cc(F)c(C(=O)N[C@@H](Cc2ccc(-c3c(C(F)(F)F)cc(C)n(C)c3=O)c3c2CN(C)CC3)C(=O)O)c(F)c1)C(F)(F)F [Example 204] | 1.34 nM |
| O=C(N[C@@H](Cc1ccc(-c2cc(F)c(F)cc2OC2CC2)c2c1CCCO2)C(=O)O)c1c(Cl)cccc1Cl [Example 64, (S)-3-(8-(2-cyclopropoxy-4,5-difluorophenyl)chroman-5-yl)-2-(2,6-dichlorobenzamido)propanoic acid] | 110 nM |
| CC[C@@H](Nc1cc(F)c(C(=O)N[C@@H](Cc2ccc(-c3c(C)n(C)c(=O)n(C)c3=O)c3c2CCCO3)C(=O)O)c(F)c1)C(F)(F)F [Example 54, (S)-2-(2,6-difluoro-4-(((R)-1,1,1-trifluorobutan-2-yl)amino)benzamido)-3-(8-(1,3,6-trimethyl-2,4-dioxo-1,2,3,4-tetrahydropyrimidin-5-yl)chroman-5-yl)propanoic acid] | 0.607 nM |
| CC[C@@H](Nc1cc(F)c(C(=O)N[C@@H](Cc2ccc(-c3c(OC)cc(C)n(C)c3=O)c3c2CCCO3)C(=O)O)c(F)c1)C(F)(F)F [Example 47, (S)-2-(2,6-difluoro-4-(((R)-1,1,1-trifluorobutan-2-yl)amino)benzamido)-3-(8-(4-methoxy-1,6-dimethyl-2-oxo-1,2-dihydropyridin-3-yl)chroman-5-yl)propanoic acid] | 0.58 nM |
| Cc1cc(N2CCOC[C@@H]2C(F)(F)F)cc(F)c1C(=O)N[C@@H](Cc1ccc(-c2nc(C)c(C)n(C)c2=O)c2c1CCCO2)C(=O)O [Example 165] | 0.25 nM |
| CC[C@@H](Nc1cc(F)c(C(=O)N[C@@H](Cc2ccc(-c3nc(C)c(C)n(C)c3=O)c3c2CCCO3)C(=O)O)c(F)c1F)C(F)(F)F [Example 122] | 0.271 nM |
| CC[C@@H](Nc1cc(F)c(C(=O)N[C@@H](Cc2ccc(-c3c(C(F)(F)F)cc(C)n(C)c3=O)c3c2CCCO3)C(=O)O)c(F)c1)C(F)(F)F [Example 43, (S)-2-(2,6-difluoro-4-(((R)-1,1,1-trifluorobutan-2-yl)amino)benzamido)-3-(8-(1,6-dimethyl-2-oxo-4-(trifluoromethyl)-1,2-dihydropyridin-3-yl)chroman-5-yl)propanoic acid] | 0.633 nM |
| O=C(N[C@@H](Cc1ccc(-c2c(Cl)cc(F)cc2Cl)c2c1OCCO2)C(=O)O)c1c(Cl)cccc1Cl [Example 5, (S)-3-(8-(2,6-dichloro-4-fluorophenyl)-2,3-dihydrobenzo[b][1,4]dioxin-5-yl)-2-(2,6-dichlorobenzamido)propanoic acid] | 55.4 nM |

Continued by falling EC50, values first:

| EC50 | Structure (SMILES) |
| --- | --- |
| 64 nM | O=C(N[C@@H](Cc1ccc(-c2c(Cl)cc(F)cc2Cl)c2c1CCCO2)C(=O)O)c1c(F)cc(N[C@H](c2ccccc2)C(F)(F)F)cc1F [Example 84, (S)-3-(8-(2,6-dichloro-4-fluorophenyl)chroman-5-yl)-2-(2,6-difluoro-4-(((R)-2,2,2-trifluoro-1-phenylethyl)amino)benzamido)propanoic acid] |
| 40.9 nM | O=C(N[C@@H](Cc1ccc(-c2cccc3c2OCCC3)c2c1CCCO2)C(=O)O)c1c(Cl)cccc1Cl [Example 67, (S)-3-([8,8′-bichroman]-5-yl)-2-(2,6-dichlorobenzamido)propanoic acid] |
| 24.8 nM | Cc1c(-c2ccc(C[C@H](NC(=O)c3c(F)cccc3F)C(=O)O)c3c2CCOC3)c(=O)n(C)c2ccc(F)cc12 (single isomer, unassigned) [Example 36] |
| 13.9 nM | O=C(N[C@@H](Cc1ccc(-c2ncc3ccccc3c2C(F)(F)F)c2c1OCCO2)C(=O)O)c1c(F)cccc1F [Example 12, (S)-2-(2,6-difluorobenzamido)-3-(8-(4-(trifluoromethyl)isoquinolin-3-yl)-2,3-dihydrobenzo[b][1,4]dioxin-5-yl)propanoic acid] |
| 0.551 nM | Cc1cc(N2CCC2)c(-c2ccc(C[C@H](NC(=O)c3c(F)cc(N4CCOC[C@@H]4C(F)(F)F)cc3F)C(=O)O)c3c2OCCC3)c(=O)n1C (atropisomer, axis not shown) [Example 153] |
| 0.356 nM | CCc1nc(-c2ccc(C[C@H](NC(=O)c3c(C)cc(N4CCOC[C@@H]4C(F)(F)F)cc3F)C(=O)O)c3c2OCCC3)c(=O)n(C)c1CC [Example 169] |
